We go through twelve compounds from patent publication US20060100243A1 (priority 2004, published 2006).

As a reminder, the Ki is a dissociation constant, usually derived from enzyme kinetics or from competition with a known ligand. One may read the IC50 as the concentration needed to halve the response being measured.

The structures appear in SMILES notation. Entries after “also recorded” stand apart in the source; their conditions may differ.

T2 sequence (P23975 whole entry): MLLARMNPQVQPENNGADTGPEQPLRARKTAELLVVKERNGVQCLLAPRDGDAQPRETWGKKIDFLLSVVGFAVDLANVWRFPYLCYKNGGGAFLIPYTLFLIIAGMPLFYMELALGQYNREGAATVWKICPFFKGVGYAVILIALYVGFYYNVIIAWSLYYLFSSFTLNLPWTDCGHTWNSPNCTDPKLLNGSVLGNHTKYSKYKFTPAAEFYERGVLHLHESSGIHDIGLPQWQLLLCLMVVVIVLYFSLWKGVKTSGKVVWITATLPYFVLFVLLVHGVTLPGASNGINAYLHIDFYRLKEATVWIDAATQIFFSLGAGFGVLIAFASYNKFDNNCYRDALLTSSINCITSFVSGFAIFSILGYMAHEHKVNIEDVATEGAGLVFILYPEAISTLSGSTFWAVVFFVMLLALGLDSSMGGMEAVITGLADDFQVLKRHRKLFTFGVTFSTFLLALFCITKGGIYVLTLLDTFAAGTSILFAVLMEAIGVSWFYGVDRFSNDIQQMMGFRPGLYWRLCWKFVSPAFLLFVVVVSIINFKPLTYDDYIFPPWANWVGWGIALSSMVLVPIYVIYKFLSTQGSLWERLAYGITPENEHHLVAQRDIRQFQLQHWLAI
T1 sequence (Q01959 whole entry): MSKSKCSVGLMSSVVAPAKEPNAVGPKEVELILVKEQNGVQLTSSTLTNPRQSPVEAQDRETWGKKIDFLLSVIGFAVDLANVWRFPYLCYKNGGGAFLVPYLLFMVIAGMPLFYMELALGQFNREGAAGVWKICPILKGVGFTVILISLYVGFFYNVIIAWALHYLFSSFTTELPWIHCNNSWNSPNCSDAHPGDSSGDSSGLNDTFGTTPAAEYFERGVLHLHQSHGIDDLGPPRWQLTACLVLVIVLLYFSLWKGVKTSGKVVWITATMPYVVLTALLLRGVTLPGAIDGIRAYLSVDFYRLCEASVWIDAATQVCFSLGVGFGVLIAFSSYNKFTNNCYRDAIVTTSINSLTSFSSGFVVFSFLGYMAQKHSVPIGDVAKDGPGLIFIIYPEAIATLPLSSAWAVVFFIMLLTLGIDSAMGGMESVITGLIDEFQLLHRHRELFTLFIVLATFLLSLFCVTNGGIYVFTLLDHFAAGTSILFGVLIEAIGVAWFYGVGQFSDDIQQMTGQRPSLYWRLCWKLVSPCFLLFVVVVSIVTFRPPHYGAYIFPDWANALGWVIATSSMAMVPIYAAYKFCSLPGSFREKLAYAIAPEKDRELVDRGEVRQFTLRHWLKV

One test addresses T1, recombinant human dopamine transporter (Homo sapiens, UniProt Q01959).
T1 construct: expressed in transfected cells
Description: [125I]RTI-55 binding, dopamine transporter in HEK 293 cells. To be noted: DOPAMINE [I125]-RTI-55 BINDING (Ki), RS/SR racemates table; HEK 293 cells.
For the compound `CCC(c1ccc(Cl)cc1)C1CCCCN1` (single isomer, unassigned) [BB], the Ki is 3500 ± 1000 nM.

In the case of `CC(C)C(c1ccc(Cl)cc1)C1CCCCN1` (single isomer, unassigned) [CC], the Ki was 900 ± 320 nM.

For the compound `CCCCC(c1ccc(Cl)cc1)C1CCCCN1` (single isomer, unassigned) [GG], the Ki worked out at 290 ± 70 nM.

With `Clc1ccc(C(CC2CCCCC2)C2CCCCN2)cc1` (single isomer, unassigned) [HH], the Ki was found to be 260 ± 30 nM.

`Clc1ccc(C(C2CCCC2)C2CCCCN2)cc1` (single isomer, unassigned) [KK]: the Ki amounted to 690 ± 140 nM.

The same test, now with this note: RR/SS racemates table; HEK 293 cells; read-out: DOPAMINE [I125]-RTI-55 BINDING (Ki).
With `Clc1ccc(C(CC2CCCC2)C2CCCCN2)cc1` (racemic) [L], the Ki is 9.4 ± 1.5 nM.

Regarding `CCCC(c1ccc(Cl)cc1)C1CCCCN1` (racemic) [Sample E], the Ki worked out at 11 ± 3 nM.

Regarding `CC(C)CC(c1ccc(Cl)c(Cl)c1)C1CCCCN1` (racemic) [Sample N], the Ki was found to be 1 ± 0.5 nM.

The test is the same for the next values; noted with them: RS/SR racemates table; HEK 293 cells; read-out: DOPAMINE [I125]-RTI-55 BINDING (Ki).
`Clc1ccc(C(CC2CCCC2)C2CCCCN2)cc1` (racemic) [LL]: the Ki came out at 310 ± 80 nM.

In the case of `CC(C)CC(c1ccc(Cl)cc1)C1CCCCN1` (racemic) [Sample DD], the Ki amounted to 170 ± 50 nM.

With `CC(C)CC(c1ccc(Cl)c(Cl)c1)C1CCCCN1` (racemic) [Sample NN], the Ki stood at 31 ± 11 nM.

Staying with this test, now noted: in words; binding and reuptake, compared with MPH / other samples.
On to `CC(C)CC(c1ccc(Cl)cc1)C1CCCCN1` (racemic) [Sample DD], for which the “potency at binding to the dopamine transporter and blocking dopamine reuptake” value (shortened to “potency at binding”) is “inactivity”.

For `CCCC(c1ccc(Cl)cc1)C1CCCCN1` (racemic) [Sample E], the “potency at binding” value is “enhanced potency; also recorded: most potent”.

For the compound `CC(C)CC(c1ccc(Cl)c(Cl)c1)C1CCCCN1` (racemic) [Sample NN], the “potency at binding” value was “considerably more potent; also recorded: most potent”.

Consider `CC(C)CC(c1ccc(Cl)c(Cl)c1)C1CCCCN1` (racemic) [Sample N], for which the “potency at binding” value is listed as “enhanced potency; also recorded: most potent”.

A further test has as its target T2, recombinant human norepinephrine transporter (Homo sapiens, UniProt P23975).
T2 construct: expressed in transfected cells
Description: cell-based. To be noted: NORE[…] REUPTAKE (IC50).
Turning to `Clc1ccc(C(CC2CCCCC2)C2CCCCN2)cc1` (single isomer, unassigned) [HH], the IC50 is 1700 ± 600 nM.

Staying with this test, now noted: RR/SS racemates table; HEK 293 cells; read-out: NOREPINEPHRINE NE REUPTAKE (IC50).
For the compound `Clc1ccc(C(CC2CCCC2)C2CCCCN2)cc1` (racemic) [L], the IC50 was found to be 310 ± 40 nM.

With `CCCC(c1ccc(Cl)cc1)C1CCCCN1` (racemic) [Sample E], the IC50 was found to be 50 ± 15 nM.

With `CC(C)CC(c1ccc(Cl)c(Cl)c1)C1CCCCN1` (racemic) [Sample N], the IC50 worked out at 9 ± 1 nM.

The test is the same for the next values; noted with them: RS/SR racemates table; HEK 293 cells; read-out: NOREPINEPHRINE NE REUPTAKE (IC50).
For `Clc1ccc(C(CC2CCCC2)C2CCCCN2)cc1` (racemic) [LL], the IC50 came to 730 ± 230 nM.

As for `CC(C)CC(c1ccc(Cl)cc1)C1CCCCN1` (racemic) [Sample DD], the IC50 stood at 750 ± 170 nM.

Turning to `CC(C)CC(c1ccc(Cl)c(Cl)c1)C1CCCCN1` (racemic) [Sample NN], the IC50 is 19 ± 3 nM.

In the case of `CCCCC(c1ccc(Cl)cc1)C1CCCCN1` (single isomer, unassigned) [GG], the IC50 was 180 ± 160 nM.

The target of the next test is T1, recombinant human dopamine transporter. Nature of the test: dopamine reuptake inhibition in HEK 293 cells. Type of test: cell-based. To be noted: DOPAMINE DA REUPTAKE (IC50), RS/SR racemates table; HEK 293 cells.
With `CCC(c1ccc(Cl)cc1)C1CCCCN1` (single isomer, unassigned) [BB], the IC50 was 2200 ± 300 nM.

With `CC(C)C(c1ccc(Cl)cc1)C1CCCCN1` (single isomer, unassigned) [CC], the IC50 worked out at 990 ± 280 nM.

`CCCCC(c1ccc(Cl)cc1)C1CCCCN1` (single isomer, unassigned) [GG]: the IC50 was 170 ± 40 nM.

On to `Clc1ccc(C(CC2CCCCC2)C2CCCCN2)cc1` (single isomer, unassigned) [HH], for which the IC50 amounted to 410 ± 60 nM.

On to `Clc1ccc(C(C2CCCC2)C2CCCCN2)cc1` (single isomer, unassigned) [KK], for which the IC50 came to 240 ± 30 nM.

Staying with this test, now noted: RR/SS racemates table; HEK 293 cells; read-out: DOPAMINE DA REUPTAKE (IC50).
Take `Clc1ccc(C(CC2CCCC2)C2CCCCN2)cc1` (racemic) [L]: the IC50 turned out to be 21 ± 1 nM.

As for `CCCC(c1ccc(Cl)cc1)C1CCCCN1` (racemic) [Sample E], the IC50 was 7.4 ± 0.4 nM.

Consider `CC(C)CC(c1ccc(Cl)c(Cl)c1)C1CCCCN1` (racemic) [Sample N], for which the IC50 amounted to 5.5 ± 1.3 nM.

The test is the same for the next values; noted with them: RS/SR racemates table; HEK 293 cells; read-out: DOPAMINE DA REUPTAKE (IC50).
Turning to `Clc1ccc(C(CC2CCCC2)C2CCCCN2)cc1` (racemic) [LL], the IC50 turned out to be 180 ± 20 nM.

For the compound `CC(C)CC(c1ccc(Cl)cc1)C1CCCCN1` (racemic) [Sample DD], the IC50 came out at 380 ± 130 nM.

As to `CC(C)CC(c1ccc(Cl)c(Cl)c1)C1CCCCN1` (racemic) [Sample NN], the IC50 is 13 ± 3 nM.

Staying with this test, now noted: in words; from binding and reuptake values.
As for `CCCC(c1ccc(Cl)cc1)C1CCCCN1` (racemic) [Sample E], the “selectivity for the dopamine transporter over the norepinephrine transporter” value is “enhanced selectivity”.

The same test, now with this note: ratio of NE/DA reuptake IC50; selectivity for dopamine over norepinephrine transporter.
For the compound `CCCC(c1ccc(Cl)cc1)C1CCCCN1` (racemic) [Sample E], the “NE/DA REUPTAKE” value was found to be 6.8.

In the case of `CC(C)CC(c1ccc(Cl)c(Cl)c1)C1CCCCN1` (racemic) [Sample N], the “NE/DA REUPTAKE” value came out at 1.6.

The next test deals with T3, recombinant human serotonin transporter (Homo sapiens, UniProt P31645).
T3 construct: expressed in transfected cells
T3 sequence (P31645 whole entry): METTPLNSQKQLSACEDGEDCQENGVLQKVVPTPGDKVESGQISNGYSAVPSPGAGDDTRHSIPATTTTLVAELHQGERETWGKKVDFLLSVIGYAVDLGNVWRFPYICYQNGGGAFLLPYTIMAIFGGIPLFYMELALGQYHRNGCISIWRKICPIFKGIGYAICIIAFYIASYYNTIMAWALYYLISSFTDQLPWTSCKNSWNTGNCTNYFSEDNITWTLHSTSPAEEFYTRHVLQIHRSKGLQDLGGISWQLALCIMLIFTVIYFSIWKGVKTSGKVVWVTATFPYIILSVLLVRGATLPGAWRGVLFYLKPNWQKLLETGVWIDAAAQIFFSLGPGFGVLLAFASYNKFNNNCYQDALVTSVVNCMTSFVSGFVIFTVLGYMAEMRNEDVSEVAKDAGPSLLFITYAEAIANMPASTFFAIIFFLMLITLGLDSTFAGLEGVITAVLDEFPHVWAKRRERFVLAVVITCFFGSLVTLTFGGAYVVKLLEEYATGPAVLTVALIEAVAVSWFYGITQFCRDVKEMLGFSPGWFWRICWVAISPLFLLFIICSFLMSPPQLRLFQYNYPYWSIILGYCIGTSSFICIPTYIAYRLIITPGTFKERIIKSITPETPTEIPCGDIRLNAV
Description: biochemical. Type of test: binding. The settings on record: RR/SS racemates table; HEK 293 cells; read-out: SEROTONIN [I125]-RTI-55 BINDING (Ki).
Regarding `CCCC(c1ccc(Cl)cc1)C1CCCCN1` (racemic) [Sample E], the Ki stood at 2700 ± 600 nM.

As for `CC(C)CC(c1ccc(Cl)c(Cl)c1)C1CCCCN1` (racemic) [Sample N], the Ki was determined as 1600 ± 100 nM.

The test is the same for the next values; noted with them: RS/SR racemates table; HEK 293 cells; read-out: SEROTONIN [I125]-RTI-55 BINDING (Ki).
`CC(C)CC(c1ccc(Cl)c(Cl)c1)C1CCCCN1` (racemic) [Sample NN]: the Ki was 450 ± 40 nM.

With `Clc1ccc(C(CC2CCCCC2)C2CCCCN2)cc1` (single isomer, unassigned) [HH], the Ki is 3700 ± 500 nM.

Take `Clc1ccc(C(C2CCCC2)C2CCCCN2)cc1` (single isomer, unassigned) [KK]: the Ki came out at 4600 ± 700 nM.

Staying with this test, now noted: SEROTONIN [I125]-RTI-55 BINDING (Ki).
As to `CC(C)CC(c1ccc(C(C)C)cc1)C1CCCCN1` (racemic) [PP], the Ki is 1700 ± 500 nM.

On to `CCC(c1ccc(Cl)cc1)C1CCCCN1` (single isomer, unassigned) [BB], for which the Ki came to 5700 ± 800 nM.

In the case of `CC(C)C(c1ccc(Cl)cc1)C1CCCCN1` (single isomer, unassigned) [CC], the Ki was more than 10000 nM.

In another test the target is T3, recombinant human serotonin transporter. Nature of the test: serotonin (5HT) reuptake inhibition in HEK 293 cells. The test is classed as cell-based. To be noted: RR/SS racemates table; HEK 293 cells; read-out: SEROTONIN 5HT REUPTAKE (IC50).
As for `CCCC(c1ccc(Cl)cc1)C1CCCCN1` (racemic) [Sample E], the IC50 amounted to 2900 ± 1100 nM.

`CC(C)CC(c1ccc(Cl)c(Cl)c1)C1CCCCN1` (racemic) [Sample N]: the IC50 came out at 1100 ± 300 nM.

The same test, now with this note: RS/SR racemates table; HEK 293 cells; read-out: SEROTONIN 5HT REUPTAKE (IC50).
On to `CC(C)CC(c1ccc(Cl)c(Cl)c1)C1CCCCN1` (racemic) [Sample NN], for which the IC50 was 290 ± 60 nM.

Staying with this test, now noted: SEROTONIN 5HT REUPTAKE (IC50), RS/SR racemates table; HEK 293 cells.
Take `CC(C)CC(c1ccc(C(C)C)cc1)C1CCCCN1` (racemic) [PP]: the IC50 is 1700 ± 100 nM.

For `CCC(c1ccc(Cl)cc1)C1CCCCN1` (single isomer, unassigned) [BB], the IC50 turned out to be 2000 ± 600 nM.

Consider `Clc1ccc(C(CC2CCCCC2)C2CCCCN2)cc1` (single isomer, unassigned) [HH], for which the IC50 was 6400 ± 1300 nM.

For the compound `Clc1ccc(C(C2CCCC2)C2CCCCN2)cc1` (single isomer, unassigned) [KK], the IC50 was determined as 4200 ± 900 nM.

For the next test, the target named is T2, recombinant human norepinephrine transporter. Nature of the test: biochemical. Type of test: binding. The settings on record: NOREPINEPHRINE [I125]-RTI-55 BINDING (Ki).
Take `CC(C)CC(c1ccc(C(C)C)cc1)C1CCCCN1` (racemic) [PP]: the Ki was found to be 3.2 ± 0.6 µM.

Regarding `CC(C)C(c1ccc(Cl)cc1)C1CCCCN1` (single isomer, unassigned) [CC], the Ki is more than 10 µM.

Take `Clc1ccc(C(CC2CCCCC2)C2CCCCN2)cc1` (single isomer, unassigned) [HH]: the Ki is 4.3 ± 0.2 µM.

Staying with this test, now noted: NOREPINEPHRINE [I125]-RTI-55 BINDING (Ki), RS/SR racemates table; HEK 293 cells.
As to `CCCCC(c1ccc(Cl)cc1)C1CCCCN1` (single isomer, unassigned) [GG], the Ki is 1.6 ± 0.3 µM.

Still in this test, the particulars now being: RR/SS racemates table; HEK 293 cells; read-out: NOREPINEPHRINE [I125]-RTI-55 BINDING (Ki).
As for `Clc1ccc(C(CC2CCCC2)C2CCCCN2)cc1` (racemic) [L], the Ki worked out at 1.7 ± 0.6 µM.

`CCCC(c1ccc(Cl)cc1)C1CCCCN1` (racemic) [Sample E]: the Ki was found to be 0.2 ± 0.08 µM.

Take `CC(C)CC(c1ccc(Cl)c(Cl)c1)C1CCCCN1` (racemic) [Sample N]: the Ki is 0.025 ± 0.009 µM.

Still in this test, the particulars now being: RS/SR racemates table; HEK 293 cells; read-out: NOREPINEPHRINE [I125]-RTI-55 BINDING (Ki).
Consider `Clc1ccc(C(CC2CCCC2)C2CCCCN2)cc1` (racemic) [LL], for which the Ki is 2.6 ± 0.8 µM.

In the case of `CC(C)CC(c1ccc(Cl)cc1)C1CCCCN1` (racemic) [Sample DD], the Ki worked out at 4.5 ± 1.5 µM.

On to `CC(C)CC(c1ccc(Cl)c(Cl)c1)C1CCCCN1` (racemic) [Sample NN], for which the Ki is 0.12 ± 0.03 µM.

The same test, now with this note: RS/SR racemates table; in μM; read-out: NOREPINEPHRINE [I125]-RTI-55 BINDING (Ki).
In the case of `CCC(c1ccc(Cl)cc1)C1CCCCN1` (single isomer, unassigned) [BB], the Ki is more than 10 µM.
